Measured values reported in ChEMBL document CHEMBL1201862, “PubChem BioAssay data set” (2004).
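1) Cells in 96-well plates. 2) Compound, 48 h, 5 concentrations. 3) Linear interpolation between surrounding doses. 4) Unreached endpoint = highest concentration. GI50 is the concentration that inhibits growth by half.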 The source made the active and inactive calls. Cut-off read from the data, not from the text of the source: active = GI50 up to about 1.1 µM and inactive = higher.

Experiments:
Assay in all cases: growth of human tumour cells (NCI), 48 h
A549 = system: A549
CCRF-CEM = system: CCRF-CEM
HOP-92 = system: HOP-92
TK-10 = system: TK-10
UACC-62 = system: UACC-62
RPMI-8226 = system: RPMI-8226
SK-MEL-5 = system: SK-MEL-5
SR = system: SR
SF-295 = system: SF-295
OVCAR-8 = system: OVCAR-8
EKVX = system: EKVX
ACHN = system: ACHN
HCC 2998 = system: HCC 2998
HL-60 = system: HL-60
HCT-116 = system: HCT-116
IGROV-1 = system: IGROV-1
SNB-19 = system: SNB-19
SNB-75 = system: SNB-75
NCI-H226 = system: NCI-H226

Compound	GI50 (A549)	GI50 (CCRF-CEM)	GI50 (HOP-92)	GI50 (TK-10)	GI50 (UACC-62)	GI50 (RPMI-8226)	GI50 (SK-MEL-5)	GI50 (SR)	GI50 (SF-295)	GI50 (OVCAR-8)	GI50 (EKVX)	GI50 (ACHN)	GI50 (HCC 2998)	GI50 (HL-60)	GI50 (HCT-116)	GI50 (IGROV-1)	GI50 (SNB-19)	GI50 (SNB-75)	GI50 (NCI-H226)
NC(=O)N/N=C/C(=C/Nc1ccccc1)[N+](=O)[O-]	> 100 µM (inactive)	> 100 µM (inactive)	79.3 µM (inactive)	> 100 µM (inactive)	> 100 µM (inactive)	> 100 µM (inactive)	> 100 µM (inactive)	> 100 µM (inactive)	> 100 µM (inactive)	> 100 µM (inactive)	> 100 µM (inactive)	> 100 µM (inactive)	> 100 µM (inactive)	> 100 µM (inactive)	> 100 µM (inactive)	> 100 µM (inactive)	> 100 µM (inactive)		
Cc1cccc(C)c1NC(=O)C1=NC(=S)NC(c2ccccc2)C1c1nc2ccccc2s1 (stereo not given)	> 100 µM (inactive)	> 100 µM (inactive)	> 100 µM (inactive)	> 100 µM (inactive)	> 100 µM (inactive)		> 100 µM (inactive)	> 100 µM (inactive)	> 100 µM (inactive)	> 100 µM (inactive)	> 100 µM (inactive)	> 100 µM (inactive)	> 100 µM (inactive)	> 100 µM (inactive)	> 100 µM (inactive)	> 100 µM (inactive)	> 100 µM (inactive)	> 100 µM (inactive)	> 100 µM (inactive)
COc1ccc(N2C(=O)C(N3C(=O)C=CC3=O)C2C=O)cc1 (stereo not given)	> 100 µM (inactive)	> 100 µM (inactive)	> 100 µM (inactive)	> 100 µM (inactive)	> 100 µM (inactive)	> 100 µM (inactive)	> 100 µM (inactive)	> 100 µM (inactive)	> 100 µM (inactive)	> 100 µM (inactive)	> 100 µM (inactive)	> 100 µM (inactive)	> 100 µM (inactive)	> 100 µM (inactive)	> 100 µM (inactive)	> 100 µM (inactive)	> 100 µM (inactive)	> 100 µM (inactive)	
Cc1ccc(C)c(N2C/C(=N\NC(=O)CC#N)C(c3nc4ccccc4s3)C(=O)C2=O)c1 (stereo not given)	> 100 µM (inactive)	> 100 µM (inactive)	> 100 µM (inactive)	> 100 µM (inactive)	> 100 µM (inactive)		> 100 µM (inactive)	> 100 µM (inactive)	> 100 µM (inactive)	> 100 µM (inactive)	> 100 µM (inactive)	> 100 µM (inactive)	> 100 µM (inactive)	> 100 µM (inactive)	> 100 µM (inactive)	> 100 µM (inactive)	> 100 µM (inactive)	> 100 µM (inactive)	> 100 µM (inactive)
C[C@@H](CC(O)C1OC1(C)C)[C@@H]1CC[C@]2(C)C3=CCC4C(C)(C)C(O)CC[C@]4(C)C3CCC12C (stereo not given in full)	12.7 µM (inactive)	27.5 µM (inactive)	17.9 µM (inactive)	20.3 µM (inactive)	14.8 µM (inactive)	10.3 µM (inactive)		16.3 µM (inactive)	13.7 µM (inactive)	26.5 µM (inactive)	39.6 µM (inactive)	14.8 µM (inactive)	48.6 µM (inactive)	4.14 µM (inactive)	9.89 µM (inactive)	31.3 µM (inactive)	37.6 µM (inactive)		18.5 µM (inactive)
ON1CCc2c([nH]c3ccccc23)C1c1ccc(Cl)cc1 (stereo not given)	30 µM (inactive)	18.2 µM (inactive)	16.8 µM (inactive)	43.9 µM (inactive)	31 µM (inactive)	29.6 µM (inactive)		20.3 µM (inactive)	27.7 µM (inactive)	32.4 µM (inactive)	35.8 µM (inactive)	31 µM (inactive)	23.8 µM (inactive)	25.9 µM (inactive)	0.384 µM (active)		29 µM (inactive)	30.3 µM (inactive)	20.3 µM (inactive)
